Test results published in US20100168103A1, “DIARYL PIPERIDINE COMPOUNDS AS CALCIUM CHANNEL BLOCKERS” (NEUROMED PHARMACEUTICALS LTD., priority 2006, published 2010).
Like-named read-outs stand apart in the source and are kept apart here.

Target: T1, rat brain N-type calcium channel subunits (α1B+α2δ+β1b cDNA subunits) (Rattus norvegicus, UniProt Q02294)
T1 construct: expressed in transfected cells; host or cells: HEK 293
Test: N-type calcium channel block, whole cell patch clamp in transfected HEK 293 cells
Assay type: cell-based
Settings: holding potential −80 mV to +10 mV
Method: N-type calcium channel blocking activity was assayed in human embryonic kidney cells, HEK 293, stably transfected with the rat brain N-type calcium channel subunits (α1B+α2δ+β1b cDNA subunits). Alternatively, N-type calcium channels (α1B+α2δ+β1b cDNA subunits), L-type channels (α1C+α2δ+β1b cDNA subunits) and P/Q-type channels (α1A+α2δ+β1b cDNA subunits) were transiently expressed in HEK 293 cells. Briefly, cells were cultured in Dulbecco's modified eagle medium (DMEM) supplemented with 10% fetal bovine serum, 200 U/ml penicillin and 0.2 mg/ml streptomycin at 37° C. with 5% CO2. At 85% confluency cells were split with 0.25% trypsin/1 mM EDTA and plated at 10% confluency on glass coverslips. At 12 hours the medium was replaced and the cells transiently transfected using a standard calcium phosphate protocol and the appropriate calcium channel cDNA's. Fresh DMEM was supplied and the cells transferred to 28° C./5% CO2. Cells were incubated for 1 to 2 days prior to whole cell recording.
Whole cell patch clamp experiments were performed using an Axopatch 200B amplifier (Axon Instruments, Burlingame, Calif.) linked to a personal computer equipped with pCLAMP software. The external and internal recording solutions contained, respectively, 5 mM BaCl2, 10 mM MgCl2, 10 mM HEPES, 40 mM TEACl, 10 mM glucose, 87.5 mM CsCl (pH 7.2) and 108 mM CsMS, 4 mM MgCl2, 9 mM EGTA, 9 mM HEPES (pH 7.2). Currents were typically elicited from a holding potential of −80 mV to +10 mV using Clampex software (Axon Instruments). Typically, currents were first elicited with low frequency stimulation (0.067 Hz) and allowed to stabilize prior to application of the compounds. The compounds were then applied during the low frequency pulse trains for two to three minutes to assess tonic block, and subsequently the pulse frequency was increased to 0.2 Hz to assess frequency dependent block. Data were analyzed using Clampfit (Axon Instruments) and SigmaPlot 4.0 (Jandel Scientific).

[1] = low frequency stimulation 0.067 Hz (tonic block), 5 mM BaCl2, read-out: IC50 @ 0.067 Hz
[2] = pulse frequency 0.2 Hz (frequency dependent block), 5 mM BaCl2, read-out: IC50 @ 0.2 Hz

T1 sequence (Q02294 whole entry): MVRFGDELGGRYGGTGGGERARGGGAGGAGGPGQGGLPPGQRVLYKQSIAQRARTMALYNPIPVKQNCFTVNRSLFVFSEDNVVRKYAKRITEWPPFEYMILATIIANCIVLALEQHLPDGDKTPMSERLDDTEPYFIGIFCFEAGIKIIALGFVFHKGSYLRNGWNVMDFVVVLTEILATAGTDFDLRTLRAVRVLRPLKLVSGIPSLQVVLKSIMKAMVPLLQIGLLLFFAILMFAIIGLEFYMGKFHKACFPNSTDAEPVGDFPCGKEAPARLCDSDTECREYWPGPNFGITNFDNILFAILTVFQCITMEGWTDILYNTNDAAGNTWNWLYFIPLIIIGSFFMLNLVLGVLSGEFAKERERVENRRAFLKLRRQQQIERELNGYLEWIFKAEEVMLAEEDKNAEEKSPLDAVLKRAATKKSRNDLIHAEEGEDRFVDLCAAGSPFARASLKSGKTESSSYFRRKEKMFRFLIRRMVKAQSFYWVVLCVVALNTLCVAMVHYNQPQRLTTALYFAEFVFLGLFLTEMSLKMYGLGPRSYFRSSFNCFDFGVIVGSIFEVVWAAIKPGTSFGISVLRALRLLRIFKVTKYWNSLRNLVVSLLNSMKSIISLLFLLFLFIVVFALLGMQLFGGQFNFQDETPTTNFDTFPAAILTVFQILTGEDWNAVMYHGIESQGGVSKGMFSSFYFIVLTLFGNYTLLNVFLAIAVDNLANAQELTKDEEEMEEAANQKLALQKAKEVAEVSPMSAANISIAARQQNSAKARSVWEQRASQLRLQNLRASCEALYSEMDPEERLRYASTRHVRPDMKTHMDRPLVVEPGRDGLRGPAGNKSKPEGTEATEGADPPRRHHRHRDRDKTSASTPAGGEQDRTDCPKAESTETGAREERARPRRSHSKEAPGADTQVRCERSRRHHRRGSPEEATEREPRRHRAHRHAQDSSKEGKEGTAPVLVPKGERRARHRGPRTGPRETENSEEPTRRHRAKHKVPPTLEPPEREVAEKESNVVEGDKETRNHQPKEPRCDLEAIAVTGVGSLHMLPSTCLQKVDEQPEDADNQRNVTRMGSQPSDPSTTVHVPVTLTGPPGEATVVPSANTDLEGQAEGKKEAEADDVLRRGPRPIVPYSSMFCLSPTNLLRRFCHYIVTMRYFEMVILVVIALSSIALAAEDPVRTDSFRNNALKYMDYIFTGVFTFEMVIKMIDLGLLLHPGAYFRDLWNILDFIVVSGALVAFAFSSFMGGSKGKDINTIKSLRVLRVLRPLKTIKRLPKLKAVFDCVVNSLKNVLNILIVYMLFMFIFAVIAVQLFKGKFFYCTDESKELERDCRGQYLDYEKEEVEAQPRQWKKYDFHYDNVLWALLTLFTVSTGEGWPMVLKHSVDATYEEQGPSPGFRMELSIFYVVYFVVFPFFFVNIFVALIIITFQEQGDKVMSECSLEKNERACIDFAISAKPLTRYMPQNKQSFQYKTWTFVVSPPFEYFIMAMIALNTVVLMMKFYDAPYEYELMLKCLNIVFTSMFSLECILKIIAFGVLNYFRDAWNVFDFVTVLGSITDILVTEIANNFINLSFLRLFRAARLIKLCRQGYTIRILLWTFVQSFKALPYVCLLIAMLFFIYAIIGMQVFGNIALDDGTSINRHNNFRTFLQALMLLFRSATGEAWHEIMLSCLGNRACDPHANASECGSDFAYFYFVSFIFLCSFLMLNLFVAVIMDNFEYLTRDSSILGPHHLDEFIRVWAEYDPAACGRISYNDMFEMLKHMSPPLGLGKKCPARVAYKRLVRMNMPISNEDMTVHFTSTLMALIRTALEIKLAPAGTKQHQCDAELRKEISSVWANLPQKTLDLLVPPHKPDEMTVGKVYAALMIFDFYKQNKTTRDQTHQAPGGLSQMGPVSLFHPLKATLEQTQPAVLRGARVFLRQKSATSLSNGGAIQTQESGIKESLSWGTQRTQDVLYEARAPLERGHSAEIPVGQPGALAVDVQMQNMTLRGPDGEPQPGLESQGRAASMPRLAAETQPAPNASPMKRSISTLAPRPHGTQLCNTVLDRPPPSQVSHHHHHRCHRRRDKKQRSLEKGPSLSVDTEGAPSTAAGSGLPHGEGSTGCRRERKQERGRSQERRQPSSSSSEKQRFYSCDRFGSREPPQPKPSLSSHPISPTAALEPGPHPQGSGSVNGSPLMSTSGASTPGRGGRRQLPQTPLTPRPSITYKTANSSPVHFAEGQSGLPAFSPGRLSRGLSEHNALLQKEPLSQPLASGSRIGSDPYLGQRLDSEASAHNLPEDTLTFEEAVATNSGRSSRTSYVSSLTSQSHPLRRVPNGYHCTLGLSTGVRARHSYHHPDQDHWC
T1 sequence (P54290 25-944 partner limits assumed): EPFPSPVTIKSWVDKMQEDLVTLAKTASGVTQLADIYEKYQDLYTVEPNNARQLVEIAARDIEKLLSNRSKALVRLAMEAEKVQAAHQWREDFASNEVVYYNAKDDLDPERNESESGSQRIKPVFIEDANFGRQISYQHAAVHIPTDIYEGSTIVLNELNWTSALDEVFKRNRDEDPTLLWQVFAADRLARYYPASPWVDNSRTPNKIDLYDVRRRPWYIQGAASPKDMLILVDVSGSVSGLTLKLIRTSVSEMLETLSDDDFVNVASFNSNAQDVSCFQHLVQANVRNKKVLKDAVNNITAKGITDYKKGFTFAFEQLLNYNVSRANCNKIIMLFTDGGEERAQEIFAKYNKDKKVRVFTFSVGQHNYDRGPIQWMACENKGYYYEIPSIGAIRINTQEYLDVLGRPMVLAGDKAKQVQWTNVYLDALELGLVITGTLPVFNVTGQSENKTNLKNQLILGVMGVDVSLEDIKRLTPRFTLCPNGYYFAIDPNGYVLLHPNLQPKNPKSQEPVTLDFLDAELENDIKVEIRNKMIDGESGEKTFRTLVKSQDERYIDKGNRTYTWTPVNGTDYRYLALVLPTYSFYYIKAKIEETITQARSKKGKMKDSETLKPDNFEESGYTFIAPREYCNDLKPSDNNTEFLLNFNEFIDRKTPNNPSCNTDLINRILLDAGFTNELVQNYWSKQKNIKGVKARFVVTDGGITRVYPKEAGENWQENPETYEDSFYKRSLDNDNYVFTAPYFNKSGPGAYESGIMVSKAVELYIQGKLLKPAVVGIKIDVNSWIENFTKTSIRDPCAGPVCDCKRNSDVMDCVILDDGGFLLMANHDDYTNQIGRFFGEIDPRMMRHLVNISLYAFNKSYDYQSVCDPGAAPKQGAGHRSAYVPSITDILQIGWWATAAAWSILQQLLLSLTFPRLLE
T1 sequence (P54290 945-1091 partner limits assumed): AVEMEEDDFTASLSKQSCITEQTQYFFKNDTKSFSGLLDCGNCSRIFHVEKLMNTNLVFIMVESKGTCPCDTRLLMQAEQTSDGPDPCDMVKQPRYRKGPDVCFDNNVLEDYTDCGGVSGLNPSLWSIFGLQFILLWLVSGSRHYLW
T1 sequence (P54283 whole entry partner): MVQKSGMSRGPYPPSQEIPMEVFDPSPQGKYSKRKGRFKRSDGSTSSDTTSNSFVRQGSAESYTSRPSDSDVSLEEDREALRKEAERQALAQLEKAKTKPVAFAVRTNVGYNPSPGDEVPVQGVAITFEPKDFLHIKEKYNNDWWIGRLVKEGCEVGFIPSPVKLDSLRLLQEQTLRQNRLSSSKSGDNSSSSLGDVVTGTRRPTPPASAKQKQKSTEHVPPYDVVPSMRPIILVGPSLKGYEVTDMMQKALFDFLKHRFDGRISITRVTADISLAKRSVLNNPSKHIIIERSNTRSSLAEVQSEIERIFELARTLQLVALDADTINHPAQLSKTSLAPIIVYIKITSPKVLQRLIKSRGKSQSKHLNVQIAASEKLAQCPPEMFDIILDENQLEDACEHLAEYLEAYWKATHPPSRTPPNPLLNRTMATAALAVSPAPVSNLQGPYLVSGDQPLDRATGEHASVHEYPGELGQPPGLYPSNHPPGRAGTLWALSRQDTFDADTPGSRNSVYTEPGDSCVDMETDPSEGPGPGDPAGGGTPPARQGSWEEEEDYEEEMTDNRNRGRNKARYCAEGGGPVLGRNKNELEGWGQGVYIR

IC50 [1] [nM] | IC50 [2] [nM] | Compound
> 5650 | > 3830 | CN1CCN(CC2CCN(C(=O)COC(c3ccccc3)c3ccccc3)CC2)CC1 [Compound 4, 2-(benzhydryloxy)-1-(4-((4-methylpiperazin-1-yl)methyl)piperidin-1-yl)ethanone]
4790 | 2380 | CN1CCN(C(=O)C2CCN(C(=O)CNC(c3ccccc3)c3ccccc3)CC2)CC1 [Compound 7, 2-(benzhydrylamino)-1-(4-(4-methylpiperazine-1-carbonyl)piperidin-1-yl)ethanone]
5110 | 1730 | CN1CCN(C(=O)C2CCN(C(=O)COC(c3ccccc3)c3ccccc3)CC2)CC1 [Compound 8, 2-(benzhydryloxy)-1-(4-(4-methylpiperazine-1-carbonyl)piperidin-1-yl)ethanone]
2520 | 1720 | CN1CCN(CC2CCN(C(=O)CC(c3ccccc3)c3ccccc3)CC2)CC1 [Compound 10, 1-(4-((4-methylpiperazin-1-yl)methyl)piperidin-1-yl)-3,3-diphenylpropanon-1-one]
28400 | 1500 | CN1CCN(CC2CCN(C(=O)NC(c3ccccc3)c3ccccc3)CC2)CC1 [Compound 11, N-benzhydryl-4-((4-methylpiperazine-1-yl)methyl)piperidine-1-carboxamide]
1260 | 750 | CN1CCN(C(=O)C2CCN(C(=O)CC(c3ccccc3)c3ccccc3)CC2)CC1 [Compound 12, 1-(4-(4-methylpiperazine-1-carbonyl)piperidin-1-yl)-3,3-diphenylpropan-1-one]
4480 | 2210 | CN1CCN(C(=O)C2CCN(C(=O)NC(c3ccccc3)c3ccccc3)CC2)CC1 [Compound 13, N-benzhydryl-4-(4-methylpiperazine-1-carbonyl)piperidine-1-carboxamide]
1900 | 1060 | Cc1ccccc1C(CC(=O)N1CCC(CN2CCN(C)CC2)CC1)c1ccccc1C [Compound 14, 1-(4-((4-methylpiperazin-1-yl)methyl)piperidin-1-yl)-3,3-di-o-tolylpropan-1-one]
1850 | 1640 | Cc1ccccc1C(CC(=O)N1CCC(CN2CC(C)NC(C)C2)CC1)c1ccccc1C (stereo not shown) [Compound 15, 1-(4-((3,5-dimethylpiperazin-1-yl)methyl)piperidin-1-yl)-3,3-di-o-tolylpropan-1-one]
5850 | 3710 | Cc1ccccc1C(CC(=O)N1CCC(C(=O)N2CC(C)NC(C)C2)CC1)c1ccccc1C (stereo not shown) [Compound 16, 1-(4-(3,5-dimethylpiperazine-1-carbonyl)piperidin-1-yl)-3,3-di-o-tolylpropan-1-one]
3520 | 1880 | Cc1ccccc1C(CC(=O)N1CCC(C(=O)N2CCNCC2)CC1)c1ccccc1C [Compound 17, 1-(4-(piperazine-1-carbonyl)piperidin-1-yl)-3,3-di-o-tolylpropan-1-one]
1860 | 1180 | CC1CN(CC2CCN(C(=O)COC(c3ccccc3)c3ccccc3)CC2)CC(C)N1 (stereo not shown) [Compound 18, 2-(benzhydryloxy)-1-(4-((3,5-dimethylpiperazin-1-yl)methyl)piperidin-1-yl)ethanone]
8720 | 3000 | CC1CN(C(=O)C2CCN(C(=O)CNC(c3ccccc3)c3ccccc3)CC2)CC(C)N1 (stereo not shown) [Compound 20, 2-(benzhydrylamino)-1-(4-(3,5-dimethylpiperazine-1-carbonyl)piperidin-1-yl)ethanone]
1640 | 990 | CC1CN(C(=O)C2CCN(C(=O)COC(c3ccccc3)c3ccccc3)CC2)CC(C)N1 (stereo not shown) [Compound 21, 2-(benzhydryloxy)-1-(4-(3,5-dimethylpiperazine-1-carbonyl)piperidin-1-yl)ethanone]
> 4700 | > 3910 | CC1CN(CC2CCN(C(=O)CC(c3ccccc3)c3ccccc3)CC2)CC(C)N1 (stereo not shown) [Compound 23, 1-(4-((3,5-dimethylpiperazin-1-yl)methyl)piperidin-1-yl)-3,3-diphenylpropan-1-one]
> 5460 | > 3570 | CC1CN(C(=O)C2CCN(C(=O)CC(c3ccccc3)c3ccccc3)CC2)CC(C)N1 (stereo not shown) [Compound 24, 1-(4-(3,5-dimethylpiperazine-1-carbonyl)piperidin-1-yl)-3,3-diphenylpropan-1-one]
> 6490 | 9870 | CC1CN(C(=O)C2CCN(C(=O)NC(c3ccccc3)c3ccccc3)CC2)CC(C)N1 (stereo not shown) [Compound 25, N-benzhydryl-4-(3,5-dimethylpiperazine-1-carbonyl)piperidine-1-carboxamide]
1310 | 850 | CC1CN(C(=O)C2(c3ccccc3)CCN(C(=O)CC(c3ccccc3)c3ccccc3)CC2)CC(C)N1 (stereo not shown) [Compound 26, 1-(4-(3,5-dimethylpiperazine-1-carbonyl)-4-phenylpiperidin-1-yl)-3,3-diphenylpropan-1-one]
410 | 240 | Cc1ccccc1C(CC(=O)N1CCC(C(=O)N2CC(C)NC(C)C2)(c2ccccc2)CC1)c1ccccc1C (stereo not shown) [Compound 27, 1-(4-(3,5-dimethylpiperazine-1-carbonyl)-4-phenylpiperidin-1-yl)-3,3-di-o-tolylpropan-1-one]
2780 | 1610 | CC1CN(C(=O)C2(c3ccccc3)CCN(C(=O)CNC(c3ccccc3)c3ccccc3)CC2)CC(C)N1 (stereo not shown) [Compound 28, 2-(benzhydrylamino)-1-(4-(3,5-dimethylpiperazine-1-carbonyl)-4-phenylpiperidin-1-yl)ethanone]
490 | 320 | CC1CN(CC2(c3ccccc3)CCN(C(=O)CC(c3ccccc3)c3ccccc3)CC2)CC(C)N1 (stereo not shown) [Compound 30, 1-(4-((3,5-dimethylpiperazin-1-yl)methyl)-4-phenylpiperidin-1-yl)-3,3-diphenylpropan-1-one]
610 | 310 | Cc1ccccc1C(CC(=O)N1CCC(CN2CC(C)NC(C)C2)(c2ccccc2)CC1)c1ccccc1C (stereo not shown) [Compound 31, 1-(4-((3,5-dimethylpiperazin-1-yl)methyl)-4-phenylpiperidin-1-yl)-3,3-di-o-tolylpropan-1-one]
> 21200 | > 12500 | CN1CCN(C(=O)C2(c3ccccc3)CCN(C(=O)CNC(c3ccccc3)c3ccccc3)CC2)CC1 [Compound 36, 2-(benzhydrylamino)-1-(4-(4-methylpiperazine-1-carbonyl)-4-phenylpiperidin-1-yl)ethanone]

Compound | IC50 [1] [nM] | IC50 [2] [nM]
CN1CCN(CC2CCN(C(=O)C[S+]([O-])C(c3ccccc3)c3ccccc3)CC2)CC1 (stereo not shown) [Compound 6, 2-(benzhydrylsulfinyl)-1-(4-((4-methylpiperazin-1-yl)methyl)piperidin-1-yl)ethanone] | 8550 | 5200
CN1CCN(C(=O)C2CCN(C(=O)C[S+]([O-])C(c3ccccc3)c3ccccc3)CC2)CC1 (stereo not shown) [Compound 9, 2-(benzhydrylsulfinyl)-1-(4-(4-methylpiperazine-1-carbonyl)piperidin-1-yl)ethanone] | 2410 | 1800
CC1CN(CC2CCN(C(=O)C[S+]([O-])C(c3ccccc3)c3ccccc3)CC2)CC(C)N1 (stereo not shown) [Compound 19, 2-(benzhydrylsulfinyl)-1-(4-((3,5-dimethylpiperazin-1-yl)methyl)piperidin-1-yl)ethanone] | 3750 | 2400
